From patent publication US20070093520A1, “Method of treatment of diarrhea-predominant irritable bowel syndrome in a subject” (priority 2005, published 2007)

Tested on: diarrhea-predominant IBS subjects
Test: 3007 Study: open-label 52-week safety study, adverse events and withdrawals
[1] = Cilansetron 2 mg/Cilansetron 2 mg
[2] = Cilansetron 2 mg/Cilansetron 2 mg, N=257
[3] = Cilansetron 2 mg/Cilansetron 2 mg, N=257, % of appropriate gender
[4] = Cilansetron 2 mg/Cilansetron 2 mg, gender-specific

Cc1nccn1C[C@H]1CCc2c(c3cccc4c3n2CCC4)C1=O [cilansetron, (R)-(−)-4,5,6,8,9,10-hexahydro-10-[(2-methyl-1H-imidazol-1-yl)methyl]-11H-pyrido-[3,2,1-jk]-carbazol-11-one]
TEAE: Upper Limb Fractures and Dislocations [1]: 0 n (%) | TEAE: Upper Respiratory Tract Infection NOS [1]: 18 (7%) n (%) | TEAE: Upper Respiratory Tract Infections - Pathogen Class Unspecified [1]: 42 (16%) n (%) | TEAE: Urinalysis NEC [1]: 10 (4%) n (%) | TEAE: Urinary Tract Infection NOS [1]: 16 (6%) n (%) | TEAE: Urinary Tract Infections [1]: 17 (7%) n (%) | TEAE: Urine Analysis Abnormal NOS [1]: 1 (<1%) n (%) | TEAE: Urine Bilirubin Increased [1]: 0 n (%) | TEAE: Urine Ketone Body Present [1]: 3 (1%) n (%) | TEAE: Urine Leukocyte Esterase Positive [1]: 3 (1%) n (%) | TEAE: Urobilin Urine Present [1]: 1 (<1%) n (%) | TEAE: Vascular Auscultatory Investigations [1]: 0 n (%) | TEAE: Vascular Tests NEC (Incl Blood Pressure) [1]: 3 (1%) n (%) | TEAE: Vasovagal Attack [1]: 1 (<1%) n (%) | TEAE: Viral Infection NOS [1]: 2 (<1%) n (%) | TEAE: Viral Infections NEC [1]: 7 (3%) n (%) | TEAE: Vomiting NOS [1]: 9 (4%) n (%) | TEAE: Weight Decreased [1]: 1 (<1%) n (%) | TEAE: Weight Increased [1]: 6 (2%) n (%) | TEAE: White Blood Cell Analyses [1]: 4 (2%) n (%) | TEAE: White Blood Cell Count Decreased [1]: 1 (<1%) n (%) | TEAE: White Blood Cells Urine Positive [1]: 1 (<1%) n (%) | TEAE leading to permanent discontinuation: Abdominal Distension [2]: 2 (<1%) n (%) | TEAE leading to permanent discontinuation: Abdominal Pain Aggravated [2]: 1 (<1%) n (%) | TEAE leading to permanent discontinuation: Abdominal Pain Lower [2]: 0 n (%) | TEAE leading to permanent discontinuation: Abdominal Pain NOS [2]: 5 (2%) n (%) | TEAE leading to permanent discontinuation: Abdominal Pain Upper [2]: 1 (<1%) n (%) | TEAE leading to permanent discontinuation: Alanine Aminotransferase Increased [2]: 1 (<1%) n (%) | TEAE leading to permanent discontinuation: Angina Pectoris [2]: 1 (<1%) n (%) | TEAE leading to permanent discontinuation: Appendicitis [2]: 1 (<1%) n (%) | TEAE leading to permanent discontinuation: Asthma Aggravated [2]: 1 (<1%) n (%) | TEAE leading to permanent discontinuation: Asthma NOS [2]: 1 (<1%) n (%) | TEAE leading to permanent discontinuation: Back Pain [2]: 3 (1%) n (%) | TEAE leading to permanent discontinuation: Bladder Prolapse [2]: 0 n (%) | TEAE leading to permanent discontinuation: Blood Bilirubin Increased [2]: 1 (<1%) n (%) | TEAE leading to permanent discontinuation: Blood Pressure Increased [2]: 1 (<1%) n (%) | TEAE leading to permanent discontinuation: Blood Urine Present [2]: 1 (<1%) n (%) | TEAE leading to permanent discontinuation: Bone Neoplasm Malignant [2]: 1 (<1%) n (%) | TEAE leading to permanent discontinuation: Cardiac Disorders [2]: 1 (<1%) n (%) | TEAE leading to permanent discontinuation: Chest Discomfort [2]: 0 n (%) | TEAE leading to permanent discontinuation: Chest Pain [2]: 0 n (%) | TEAE leading to permanent discontinuation: Chest Wall Pain [2]: 0 n (%) | TEAE leading to permanent discontinuation: Colitis Ischaemic [2]: 0 n (%) | TEAE leading to permanent discontinuation: Constipation [2]: 7 (3%) n (%) | TEAE leading to permanent discontinuation: Cough [2]: 0 n (%) | TEAE leading to permanent discontinuation: Dehydration [2]: 1 (<1%) n (%) | TEAE leading to permanent discontinuation: Depression [2]: 0 n (%) | TEAE leading to permanent discontinuation: Diarrhoea Aggravated [2]: 1 (<1%) n (%) | TEAE leading to permanent discontinuation: Diarrhoea Haemorrhagic [2]: 0 n (%) | TEAE leading to permanent discontinuation: Diarrhoea NOS [2]: 4 (2%) n (%) | TEAE leading to permanent discontinuation: Dizziness [2]: 0 n (%) | TEAE leading to permanent discontinuation: Dyspepsia [2]: 1 (<1%) n (%) | TEAE leading to permanent discontinuation: Ear and Labyrinth Disorders [2]: 1 (<1%) n (%) | TEAE leading to permanent discontinuation: Epigastric Discomfort [2]: 0 n (%) | TEAE leading to permanent discontinuation: Eructation [2]: 1 (<1%) n (%) | TEAE leading to permanent discontinuation: Eye Disorders [2]: 0 n (%) | TEAE leading to permanent discontinuation: Faecal Abnormality NOS [2]: 1 (<1%) n (%) | TEAE leading to permanent discontinuation: Faecal Impaction [2]: 0 n (%) | TEAE leading to permanent discontinuation: Faecal Incontinence [2]: 0 n (%) | TEAE leading to permanent discontinuation: Faeces Hard [2]: 1 (<1%) n (%) | TEAE leading to permanent discontinuation: Fatigue [2]: 3 (1%) n (%) | TEAE leading to permanent discontinuation: Fibroma NOS [2]: 0 n (%) | TEAE leading to permanent discontinuation: Flatulence [2]: 2 (<1%) n (%) | TEAE leading to permanent discontinuation: Gastric Irritation [2]: 1 (<1%) n (%) | TEAE leading to permanent discontinuation: Gastrointestinal Disorders [2]: 24 (9%) n (%) | TEAE leading to permanent discontinuation: Gastrointestinal Motility Disorder NOS [2]: 0 n (%) | TEAE leading to permanent discontinuation: General Disorders and Administration Site Conditions [2]: 3 (1%) n (%) | TEAE leading to permanent discontinuation: Haemorrhoidal Haemorrhage [2]: 0 n (%) | TEAE leading to permanent discontinuation: Hallucination NOS [2]: 0 n (%) | TEAE leading to permanent discontinuation: Hallucination, Auditory [2]: 0 n (%) | TEAE leading to permanent discontinuation: Headache NOS [2]: 1 (<1%) n (%) | TEAE leading to permanent discontinuation: Headache NOS Aggravated [2]: 1 (<1%) n (%) | TEAE leading to permanent discontinuation: Heart Rate Increased [2]: 1 (<1%) n (%) | TEAE leading to permanent discontinuation: Hepatobiliary Disorders [2]: 1 (<1%) n (%) | TEAE leading to permanent discontinuation: Hepatosplenomegaly NOS [2]: 1 (<1%) n (%) | TEAE leading to permanent discontinuation: Hiatus Hernia [2]: 1 (<1%) n (%) | TEAE leading to permanent discontinuation: Investigations [2]: 5 (2%) n (%) | TEAE leading to permanent discontinuation: Irritable Bowel Syndrome Aggravated [2]: 1 (<1%) n (%) | TEAE leading to permanent discontinuation: Lethargy [2]: 0 n (%) | TEAE leading to permanent discontinuation: Metabolism and Nutrition Disorders [2]: 1 (<1%) n (%) | TEAE leading to permanent discontinuation: Migraine NOS [2]: 1 (<1%) n (%) | TEAE leading to permanent discontinuation: Muscle Cramps [2]: 2 (<1%) n (%) | TEAE leading to permanent discontinuation: Musculoskeletal and Connective Tissue Disorders [2]: 5 (2%) n (%) | TEAE leading to permanent discontinuation: Nausea [2]: 3 (1%) n (%) | TEAE leading to permanent discontinuation: Neoplasms Benign, Malignant and Unspecified (Incl Cysts and Polyps) [2]: 2 (<1%) n (%) | TEAE leading to permanent discontinuation: Nervous System Disorders [2]: 4 (2%) n (%) | TEAE leading to permanent discontinuation: Pregnancy, Puerperium and Perinatal Conditions [2]: 1 (<1%) n (%) | TEAE leading to permanent discontinuation: Pruritus NOS [2]: 1 (<1%) n (%) | TEAE leading to permanent discontinuation: Psychiatric Disorders [2]: 0 n (%) | TEAE leading to permanent discontinuation: Psychotic Disorder NOS [2]: 0 n (%) | TEAE leading to permanent discontinuation: Rash Macular [2]: 0 n (%) | TEAE leading to permanent discontinuation: Rash NOS [2]: 0 n (%) | TEAE leading to permanent discontinuation: Rectal Disorder NOS [2]: 0 n (%) | TEAE leading to permanent discontinuation: Rectal Haemorrhage [2]: 2 (<1%) n (%) | TEAE leading to permanent discontinuation: Rectal Tenesmus [2]: 0 n (%) | TEAE leading to permanent discontinuation: Renal and Urinary Disorders [2]: 0 n (%) | TEAE leading to permanent discontinuation: Respiratory, Thoracic and Mediastinal Disorders [2]: 2 (<1%) n (%) | TEAE leading to permanent discontinuation: Skin and Subcutaneous Tissue Disorders [2]: 1 (<1%) n (%) | TEAE leading to permanent discontinuation: Somnolence [2]: 1 (<1%) n (%) | TEAE leading to permanent discontinuation: Stomach Discomfort [2]: 0 n (%) | TEAE leading to permanent discontinuation: Suicidal Ideation [2]: 0 n (%) | TEAE leading to permanent discontinuation: Urticaria NOS [2]: 0 n (%) | TEAE leading to permanent discontinuation: Vertigo [2]: 1 (<1%) n (%) | TEAE leading to permanent discontinuation: Visual Acuity Reduced [2]: 0 n (%) | TEAE leading to permanent discontinuation: Vomiting NOS [2]: 1 (<1%) n (%) | TEAE leading to permanent discontinuation: White Blood Cells Urine Positive [2]: 1 (<1%) n (%) | Total Number of Subjects with at Least One TEAE Leading to Discontinuation of Study Medication [2]: 33 (13%) n (%) | TEAE leading to permanent discontinuation: Benign Ovarian Tumour* [3]: 0 n (%) | TEAE leading to permanent discontinuation: Breast Cancer NOS* [3]: 0 n (%) | TEAE leading to permanent discontinuation: Ovarian Cancer NOS* [3]: 1 (<1%) n (%) | TEAE leading to permanent discontinuation: Ovarian Cystadenofibroma* [3]: 0 n (%) | TEAE leading to permanent discontinuation: Pregnancy NOS* [3]: 1 (<1%) n (%) | TEAE: Female Reproductive Tract Infections* [4]: 2 (1%) n (%) | TEAE: Prostate Examination Abnormal* [4]: 1 (1%) n (%) | TEAE: Smear Cervix Abnormal* [4]: 1 (<1%) n (%) | TEAE: Vaginal Candidiasis* [4]: 1 (<1%) n (%) | TEAE: Vaginitis Bacterial NOS* [4]: 1 (<1%) n (%) | TEAE: Vaginitis* [4]: 1 (<1%) n (%) | TEAE: Vaginosis Fungal NOS* [4]: 1 (<1%) n (%) | TEAE: Abdominal Discomfort (Overall): 1 (<1%) n (%) | TEAE: Abdominal Distension (Overall): 15 (3%) n (%) | TEAE: Abdominal Pain Aggravated (Overall): 4 (<1%) n (%) | TEAE: Abdominal Pain Lower (Overall): 10 (2%) n (%) | TEAE: Abdominal Pain NOS (Overall): 35 (7%) n (%) | TEAE: Abdominal Pain Upper (Overall): 11 (2%) n (%) | TEAE: Abdominal Rebound Tenderness (Overall): 1 (<1%) n (%) | TEAE: Abdominal Tenderness (Overall): 13 (2%) n (%) | TEAE: Abdominal Therapeutic Procedures NEC (Overall): 1 (<1%) n (%) | TEAE: Abdominoplasty (Overall): 1 (<1%) n (%) | TEAE: Abnormal Chest Sounds NOS (Overall): 1 (<1%) n (%) | TEAE: Abnormal Reflexes (Overall): 1 (<1%) n (%) | TEAE: Acne NOS (Overall): 1 (<1%) n (%) | TEAE: Acnes (Overall): 1 (<1%) n (%) | TEAE: Acquired Hypothyroidism (Overall): 2 (<1%) n (%) | TEAE: Acrochordons (Overall): 1 (<1%) n (%) | TEAE: Adenomyosis* (Overall): 1 (<1%) n (%) | TEAE: Age Related Issues (Overall): 1 (<1%) n (%) | TEAE: Alanine Aminotransferase Increased (Overall): 14 (3%) n (%) | TEAE: Allergic Conditions NEC (Overall): 3 (<1%) n (%) | TEAE: Allergies to Foods, Food Additives, Drugs and Other Chemicals (Overall): 2 (<1%) n (%) | TEAE: Allergy to Insect Sting (Overall): 1 (<1%) n (%) | TEAE: Alopecia (Overall): 1 (<1%) n (%) | TEAE: Alopecias (Overall): 1 (<1%) n (%) | TEAE: Amenorrhoea NOS* (Overall): 1 (<1%) n (%) | TEAE: Anaemia NOS (Overall): 1 (<1%) n (%) | TEAE: Anaemias NEC (Overall): 1 (<1%) n (%) | TEAE: Anal and Rectal Disorders NEC (Overall): 1 (<1%) n (%) | TEAE: Anal and Rectal Pains (Overall): 4 (<1%) n (%) | TEAE: Anal and Rectal Signs and Symptoms (Overall): 4 (<1%) n (%) | TEAE: Angina Pectoris (Overall): 3 (<1%) n (%) | TEAE: Animal Bite (Overall): 1 (<1%) n (%) | TEAE: Anorexia (Overall): 2 (<1%) n (%) | TEAE: Anxiety (Overall): 8 (1%) n (%) | TEAE: Anxiety Aggravated (Overall): 3 (<1%) n (%) | TEAE: Anxiety Symptoms (Overall): 12 (2%) n (%) | TEAE: Apocrine and Eccrine Gland Disorders (Overall): 3 (<1%) n (%) | TEAE: Appendicitis (Overall): 1 (<1%) n (%) | TEAE: Appetite Disorders (Overall): 2 (<1%) n (%) | TEAE: Arrhythmia NOS (Overall): 1 (<1%) n (%) | TEAE: Arthralgia (Overall): 13 (2%) n (%) | TEAE: Arthritis NOS (Overall): 3 (<1%) n (%) | TEAE: Arthritis NOS Aggravated (Overall): 1 (<1%) n (%) | TEAE: Arthropathies NEC (Overall): 6 (1%) n (%) | TEAE: Arthropod Bite (Overall): 2 (<1%) n (%) | TEAE: Arthropod Sting (Overall): 1 (<1%) n (%) | TEAE: Aspartate Aminotransferase Increased (Overall): 7 (1%) n (%) | TEAE: Asthenic Conditions (Overall): 15 (3%) n (%) | TEAE: Asthma Aggravated (Overall): 1 (<1%) n (%) | TEAE: Asthma NOS (Overall): 2 (<1%) n (%)
